Experimental findings from patent publication US20260347310A1, “PHENALKYLAMINES AND METHODS OF MAKING AND USING THE SAME” (GILGAMESH PHARMACEUTICALS, INC., priority 2022, published 2026) are described below.

Like-named read-outs stand apart in the source and are kept apart here.

For series [1], the target named is T1, 5-HT2C receptor (Homo sapiens, UniProt P28335).
T1 sequence (P28335 33-458): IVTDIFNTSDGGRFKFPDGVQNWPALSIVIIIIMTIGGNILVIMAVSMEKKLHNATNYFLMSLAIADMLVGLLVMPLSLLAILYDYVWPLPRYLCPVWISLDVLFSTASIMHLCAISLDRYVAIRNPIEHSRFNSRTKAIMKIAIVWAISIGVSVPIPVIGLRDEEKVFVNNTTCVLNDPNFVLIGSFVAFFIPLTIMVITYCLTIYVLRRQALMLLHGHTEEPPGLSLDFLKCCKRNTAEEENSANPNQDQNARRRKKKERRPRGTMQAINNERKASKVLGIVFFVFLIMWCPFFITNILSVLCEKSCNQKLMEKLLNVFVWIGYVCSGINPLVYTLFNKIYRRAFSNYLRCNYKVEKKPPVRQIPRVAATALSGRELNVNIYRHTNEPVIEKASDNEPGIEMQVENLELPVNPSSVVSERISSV
Description: Radioligand binding at 5-HT2C ([3H]mesulergine). How it is done:
(§1) The binding affinities of disclosed compounds at the ketanserin binding site of the 5-HT2A receptor, the LSD binding site of the 5-HT2B receptor, and the mesulergine binding site of the 5-HT2C receptor were determined in radioligand binding experiments.
(§2) Method. The affinity of the test compounds for 5-HT2A, 5-HT2B, and 5-HT2C receptors was determined in radioligand binding experiments with [^3H]ketanserin, [^3H]LSD, and [^3H]mesulergine, respectively, by WuXi AppTec (Hong Kong) Limited, using methods adapted from the literature and under conditions described in Table 7.

Series [2] is described as follows: Pharmacokinetics in plasma of rats after oral and intravenous dosing; oral bioavailability. In kind it is in vivo, Sprague Dawley rats. How it is done: The pharmacokinetics of disclosed compounds were determined in the plasma of rats after oral and intravenous dosing, with the results presented in Table 13.
Animals. Male Sprague Dawley rats were used in these studies. Animals were randomly assigned to treatment groups and were fasted overnight before oral dosing.
Drugs. The test compound was dissolved in 10% captisol (1) or 10% DMSO and 90% normal saline (2a) and administered intravenously (iv) at 2 mg/kg (1) or 1 mg/kg (2a) or orally (po) at 10 mg/kg (1) or 1 mg/kg (2a), calculated based on freebase, and at a volume of 10 mL/kg body weight for oral administration and 5 mL/kg for IV administration. The compounds were tested as the racemates.
Sample Collection and Bioanalysis. Blood samples were collected through the external jugular vein (via cannulation) at 0.083, 0.25, 0.5, 1, 2, 4, 8, and 24 h post-dose (total 8 time points/rat, 4 rats per administration route). At each time point, ~0.2 mL of blood was withdrawn and transferred into a pre-labeled 0.5-mL micro centrifuge tube containing 4 μL of 200 mM K2EDTA solution as anticoagulant and mixed gently by inverting the tube to facilitate mixing of anticoagulant with the blood. Blood samples were kept on ice until centrifugation. The collected blood samples were centrifuged at 4,000 rpm for 10 min at 4° C. Plasma samples were separated after centrifugation, transferred into pre-labeled tubes, and stored at −70° C. until bioanalysis. For bioanalysis, a 200-μL aliquot of internal standard prepared in acetonitrile (cetirizine, 50 ng/mL) was added (except for blank, where 200 μL of acetonitrile was added) to a 96-well Solvinert filter plate followed by 5 μL of a study plasma sample or spiked calibration standard. The filter plate was then centrifuged for 5 minutes at a speed of 2,500 rpm at 4° C. with a 96-well sample collection plate. Following centrifugation, collected samples were analyzed using a fit-for-purpose LC-MS/MS method, with authentic samples of the analyte used for calibration and identification.
Data Analysis. Pharmacokinetic parameters were estimated using the non-compartmental analysis tool of Phoenix® WinNonlin software (Ver 8.1). The drug concentrations of samples below the lower limit of quantitation (LLOQ) were designated as zero.

A further series concerns the target T2, 5-HT2B receptor (Homo sapiens, UniProt P41595).
T2 construct: expressed in transfected cells; host or cells: HEK293
Description: Radioligand binding at 5-HT2B ([3H]LSD). On the procedure:
as §1, §2

Series [3] concerns the target T1, 5-HT2C receptor. Description: FLIPR Ca2+ flux functional agonist assay at 5-HT2C. More on the design: expressed in transfected cells. Particulars: for Emax: agonist activity, FLIPR Ca2+ flux, stably transfected cells, at max dose, read-out: 5-HT2C % Act @ Max Dose. In kind it is cell-based. On the procedure:
Disclosed compounds were tested for agonist activity at several serotonin receptor subtypes (5-HT2A, […], and 5-HT2C) using Ca^2+ flux functional assays, with the results summarized in Table 9.
Test Compounds. Compounds were prepared as described above.
Functional Assays at 5-HT2C. Agonist activity at 5-HT2C was determined using a FLIPR Ca^2+ flux assay at Eurofins DiscoverX (Fremont, CA) according to their standard protocols. Briefly, stably transfected cells expressing the human 5-HT2C receptor were grown and plated in a 384-well plate and incubated at 37° C. and 5% CO2 overnight. Assays were performed in 1× Dye Loading Buffer consisting of 1× Dye, 1× Additive A, and 2.5 mM Probenecid in HBSS/20 mM Hepes. Probenecid was prepared fresh. Cells were loaded with dye prior to testing and incubated at 37° C. for 30-60 minutes. After dye loading, cells were removed from the incubator and 10 μL HBSS/20 mM Hepes was added. 3× vehicle was included in the assay buffer. Cells were incubated for 30 mins at room temperature in the dark to equilibrate plate temperature. Intermediate dilution of sample stocks was performed to generate 4× sample in assay buffer. Compound agonist activity was measured on a FLIPR Tetra (MDS). Calcium mobilization was monitored for 2 minutes and 10 μL 4× sample in HBSS/20 mM Hepes was added to the cells 5 seconds into the assay.
(Calcium flux is commonly read through the fluorescence of an indicator in the cells.)

T2 sequence (P41595 whole entry): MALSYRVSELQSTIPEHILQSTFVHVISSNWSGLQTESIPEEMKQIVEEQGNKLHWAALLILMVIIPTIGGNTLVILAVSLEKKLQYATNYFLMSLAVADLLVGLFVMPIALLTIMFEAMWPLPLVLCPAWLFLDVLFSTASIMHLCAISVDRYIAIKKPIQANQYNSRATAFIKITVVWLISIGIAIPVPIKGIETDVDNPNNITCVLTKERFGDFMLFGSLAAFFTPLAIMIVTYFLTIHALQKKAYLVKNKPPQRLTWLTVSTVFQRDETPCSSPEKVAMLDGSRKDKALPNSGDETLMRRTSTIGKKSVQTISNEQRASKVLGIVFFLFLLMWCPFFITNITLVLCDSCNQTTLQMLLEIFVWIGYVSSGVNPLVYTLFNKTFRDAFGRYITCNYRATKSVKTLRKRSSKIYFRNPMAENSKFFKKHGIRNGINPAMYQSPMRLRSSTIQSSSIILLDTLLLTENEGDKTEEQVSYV

Regarding `CCC(N)Cc1cc(OC)c(CCCCCC(F)(F)F)cc1OC` (racemic) [Compound 2a, 1-(2,5-dimethoxy-4-(6,6,6-trifluorohexyl)phenyl)butan-2-amine], the Ki (usually the dissociation constant of the complex between target and ligand, obtained from inhibition or displacement) at 5-HT2C receptor [1] worked out at 61.7 nM. Also, the “selectivity for 5-HT2A over 5-HT2C (in words)” value on 5-HT2C receptor [1] (Ki at 5-HT2C vs Ki at 5-HT2A) is “even higher selectivity than 1R for 5-HT2A over 5-HT2C”. The C0 in series [2] (rat plasma, IV 1 mg/kg, racemate, 10% DMSO and 90% normal saline) turned out to be 75.9 ng/mL. Further, the AUC(0-t) in series [2] (rat plasma, IV 1 mg/kg, racemate, 10% DMSO and 90% normal saline, read-out: AUC0-last (iv)) came out at 90 ng·h/mL; in series [2] (rat plasma, PO 1 mg/kg, racemate, 10% DMSO and 90% normal saline, fasted, read-out: AUC0-last (po)), 25 ng·h/mL. For the same compound, the half-life in series [2] (rat plasma, IV 1 mg/kg, racemate, 10% DMSO and 90% normal saline, read-out: t1/2 (iv) (converted)) was 2.71 h; in series [2] (rat plasma, PO 1 mg/kg, racemate, 10% DMSO and 90% normal saline, fasted, read-out: t1/2 (po) (converted)) it was 3.07 h. Moreover, the bioavailability (commonly dose-corrected exposure relative to a reference, in per cent) in series [2] (rat plasma, IV and PO 1 mg/kg, racemate, 10% DMSO and 90% normal saline, read-out: F (absolute oral bioavailability)) worked out at 28%. The concentration in series [2] (rat plasma, PO 1 mg/kg, racemate, 10% DMSO and 90% normal saline, fasted) peaked (Cmax) at 29.7 ng/mL. Moreover, the “absolute oral bioavailability (F) (in words)” value in series [2] (rats, 2a 1 mg/kg iv and 1 mg/kg po, 1 2 mg/kg iv and 10 mg/kg po, racemates) is reported as “improved absolute oral bioavailability (F), compared to 1”.

Take `CCCCCCc1cc(OC)c(C[C@H](N)CC)cc1OC` [Compound 1R, (R)-1-(4-hexyl-2,5-dimethoxyphenyl)butan-2-amine]: the Ki was 111 nM on 5-HT2B receptor and 18 nM on 5-HT2C receptor [1]. The “fold lower affinity at 5-HT2B” value at 5-HT2B receptor (1R compared to 1S) was ~ 36 fold. The “fold lower affinity at 5-HT2C” value at 5-HT2C receptor [1] (1R compared to 1S) is ~ 7 fold. Moreover, the EC50 (commonly the concentration giving half of the maximal effect) at 5-HT2C receptor [3] turned out to be 1190 nM. The “fold more potent at 5-HT2C” value at 5-HT2C receptor [3] (1R compared to 1S, Ca2+ flux) is given as ~ 3 fold. Besides, at 5-HT2C receptor [3], the Emax worked out at 104%.

At 5-HT2B receptor, `CCCCCCc1cc(OC)c(C[C@@H](N)CC)cc1OC` [Compound 1S, (S)-1-(4-hexyl-2,5-dimethoxyphenyl)butan-2-amine] displayed a Ki of 3.1 nM. On 5-HT2C receptor [1], the Ki amounted to 2.68 nM. In addition, at 5-HT2C receptor [3], a half-maximal response (EC50) required 3130 nM and the Emax stood at 106%.
